Data on four molecules can be found in patent US5112967A, “Process for synthesizing antibacterial cephalosporin compounds” (Hoffmann-La Roches Inc., priority 1990, dated 1992).

Counter-ions that a name gives are not always drawn. Like-named read-outs stand apart in the source and are kept apart here.

What all share (format): cell-based
Assay [1] concerns P. aeruginosa 185/H. Description: Broth Dilution Method MIC. The conditions noted are these: Pseudomonas aeruginosa, In Vitro. An excerpt: (§1) Compounds of the formula I and Ia, including their active geometric and/or optical isomers, their salts and esters and hydrates of those compounds can be used as agents to combat bacterial infections (including urinary tract infections and respiratory infections) in mammalian species, e.g., dogs, cats, horses, etc., and humans. […]. The […] activity of selected compounds of formulas I and Ia as measured by the Minimum Inhibitory Concentration in micrograms/ml utilizing the Agar Well Diffusion Method, Agar Dilution Method or Broth Dilution Method against a variety of Gram-positive and Gram-negative organisms, is as follows:
(§2) In Vitro MIC (ug/ml) Broth Dilution Method

In the next assay the test system is P. aeruginosa ATCC 27853. Description: Broth Dilution Method MIC. The conditions noted are these: Pseudomonas aeruginosa, ATCC27853, In Vitro.
Text: as §1, §2

The subject of a further assay is P. aeruginosa 6148B. The experiment in a line: Broth Dilution Method MIC. Conditions: Pseudomonas aeruginosa, In Vitro.
Text: as §1, §2

For a further assay, the system named is P. aeruginosa 5700. The experiment in a line: Broth Dilution Method MIC. The conditions noted are these: Pseudomonas aeruginosa, In Vitro.
Text: as §1, §2
In general terms: Broth dilution looks for growth in wells or tubes with falling amounts of substance.

Another assay concerns P. aeruginosa B. Description: Broth Dilution Method MIC. The conditions noted are these: Pseudomonas aeruginosa.
Text: as §1, §2

The subject of another assay is P. aeruginosa 503-56. Description: Broth Dilution Method MIC. Conditions: Pseudomonas aeruginosa, 50356, In Vitro.
Text: as §1, §2

The subject of a further assay is P. aeruginosa K77/WT. The experiment in a line: Broth Dilution Method MIC. Conditions: Pseudomonas aeruginosa, In Vitro.
Text: as §1, §2

The test system of the next assay is P. aeruginosa 1973E. Description: Broth Dilution Method MIC. Conditions: Pseudomonas aeruginosa, In Vitro.
Text: as §1, §2

Another assay deals with P. aeruginosa K77/61. Description: Broth Dilution Method MIC. The conditions noted are these: Pseudomonas aeruginosa.
Text: as §1, §2

The next assay relates to P. aeruginosa 765. Description: Broth Dilution Method MIC. Conditions: Pseudomonas aeruginosa, In Vitro.
Text: as §1, §2

The subject of assay [2] is P. aeruginosa Stone 130. Description: Broth Dilution Method MIC. The conditions noted are these: Pseudomonas aeruginosa, STONE130, In Vitro.
Text: as §1, §2

The next assay relates to P. aeruginosa 8780. Description: Broth Dilution Method MIC. The conditions noted are these: Pseudomonas aeruginosa, In Vitro.
Text: as §1, §2

Another assay has as its system P. aeruginosa 8710. The experiment in a line: Broth Dilution Method MIC. The conditions noted are these: Pseudomonas aeruginosa.
Text: as §1, §2

For assay [3], the system named is P. aeruginosa 185/H. The experiment in a line: Agar Dilution Method MIC. Conditions: Pseudomonas aeruginosa, In Vitro.
Text: as §1
(§3) In Vitro MIC (ug/ml) Agar Dilution Method
For orientation: Agar dilution tests growth on a series of plates holding different concentrations.

The test system of the next assay is S. aureus 95. The experiment in a line: Agar Dilution Method MIC. The conditions noted are these: Staphylococcus aureus, In Vitro.
Text: as §1, §3

The test system of a further assay is S. aureus ATCC 25923. The experiment in a line: Agar Dilution Method MIC. Conditions: Staphylococcus aureus, ATCC25923, In Vitro.
Text: as §1, §3

A further assay concerns P. mirabilis 190. Description: Agar Dilution Method MIC. Conditions: Proteus mirabilis, In Vitro.
Text: as §1, §3

The next assay deals with S. marscescens SM. The experiment in a line: Agar Dilution Method MIC. Conditions: In Vitro.
Text: as §1, §3

Another assay concerns S. aureus Giorgid. Description: Agar Dilution Method MIC. The conditions noted are these: Staphylococcus aureus, In Vitro.
Text: as §1, §3

In another assay the test system is S. aureus 1059B. Description: Agar Dilution Method MIC. Conditions: Staphylococcus aureus, In Vitro.
Text: as §1, §3

A further assay deals with E. cloacae P99. Description: Agar Dilution Method MIC. The conditions noted are these: Enterobacter cloacae.
Text: as §1, §3

The subject of the next assay is E. cloacae 9570A. The experiment in a line: Agar Dilution Method MIC. The conditions noted are these: Enterobacter cloacae, In Vitro.
Text: as §1, §3

The next assay concerns S. aureus Smith. The experiment in a line: Agar Dilution Method MIC. The conditions noted are these: Staphylococcus aureus, In Vitro.
Text: as §1, §3

For assay [4], the system named is P. aeruginosa Stone 130. The experiment in a line: Agar Dilution Method MIC. Conditions: Pseudomonas aeruginosa, STONE130, In Vitro.
Text: as §1, §3

The subject of another assay is P. vulgaris ATCC 6380. Description: Agar Dilution Method MIC. Conditions: Proteus vulgaris, ATCC6380, In Vitro.
Text: as §1, §3

The subject of a further assay is P. aeruginosa 130. The experiment in a line: Agar Dilution Method MIC. The conditions noted are these: Pseudomonas aeruginosa, In Vitro.
Text: as §1, §3

Setting [5] is: In Vitro, Broth Dilution, P. aeruginosa B, read-out: MIC.

The MIC is the lowest concentration found to suppress growth. With `CC(C)(ON=C(C(=O)NC1C(=O)N2C(C(=O)O)=C(COC(=O)c3ccc(O)c(O)c3)CSC12)c1csc(N)n1)C(=O)O` (stereo not drawn) [Compound C, [6R-[6 alpha,7 beta(Z)]]-7-[[(2-amino-4-thiazolyl)(1-carboxy-1-methylethoxy)imino]acetyl]amino]-3-[[3,4-dihydroxybenzoyl)oxy]methyl]-8-oxo-5-thia-1-azabicyclo[4.2.0]oct-2-ene-2-carboxylicacid disodium salt], the MIC turned out to be 0.031 µg/mL against P. aeruginosa 185/H [1]; 32 µg/mL in the assay on P. aeruginosa ATCC 27853; 0.031 µg/mL against P. aeruginosa 6148B; 2 µg/mL in the assay with P. aeruginosa 5700; 0.125 µg/mL against P. aeruginosa B; 0.25 µg/mL with P. aeruginosa 503-56. Further, the MIC in the assay with P. aeruginosa K77/WT was 0.63 µg/mL; in the assay with P. aeruginosa 1973E, 2 µg/mL; against P. aeruginosa K77/61, more than 0.008 µg/mL; in the assay on P. aeruginosa 765, 8 µg/mL; against P. aeruginosa Stone 130 [2], 0.125 µg/mL; against P. aeruginosa 8780, more than 0.008 µg/mL. The MIC with P. aeruginosa 8710 (8710) came to 0.063 µg/mL.

Turning to `CC(=O)Oc1ccc(C(=O)OCC2=C(C(=O)O)N3C(=O)C(NC(=O)C(=NOCC(N)=O)c4csc(N)n4)C3SC2)cc1OC(C)=O` (stereo not drawn) [Compound B, [6R-[alpha,7 beta(Z)]]-3-[[[3,4-bis(acetyloxy)benzoyl]oxy]methyl]-7-[[[2-amino-4-thiazolyl][(2-amino-2-oxoethoxy)imino]acetyl]amino]-8-oxo-5-thia-1-azabicyclo[4.2.0]oct-2-ene-2-carboxylic acid monosodium salt], the MIC was found to be 2 µg/mL against P. aeruginosa 185/H [3]; 64 µg/mL against S. aureus 95; 2 µg/mL against S. aureus ATCC 25923; 0.063 µg/mL against P. mirabilis 190; 1 µg/mL against S. marscescens SM; 8 µg/mL in the assay on S. aureus Giorgid. Further, the MIC in the assay with S. aureus 1059B amounted to 4 µg/mL; with E. cloacae P99, 32 µg/mL; against E. cloacae 9570A it was 1 µg/mL; with S. aureus Smith it was 4 µg/mL; against P. aeruginosa Stone 130 [4] it was 4 µg/mL; with P. vulgaris ATCC 6380, 0.016 µg/mL. In the assay on P. aeruginosa 130, this molecule registered an MIC of 4 µg/mL.

As for `CCN1CCN(C(=O)N[C@@H](C(=O)N[C@@H]2C(=O)N3C(C(=O)O)=C(COC(=O)c4ccc(O)c(O)c4)CS[C@H]23)c2ccccc2)C(=O)C1=O` [Compound D, [6R-[6 alpha,7 beta(R*)]]-7-[[[[(4-ethyl-2,4-dioxo-1-piperazinyl)carbonyl]amino]phenyl-acetyl]amino-3-[[(3,4-dihydroxy)benzoyl]oxy]-methyl]-8-oxo-5-thia-1-azabicyclo[4.2.0.]-oct-2-ene-2-carboxylic acid monosodium salt], the MIC worked out at 0.125 µg/mL in the assay with P. aeruginosa 185/H [1]; 0.5 µg/mL against P. aeruginosa ATCC 27853; 0.125 µg/mL against P. aeruginosa 6148B; 4 µg/mL in the assay with P. aeruginosa 5700; 0.25 µg/mL with P. aeruginosa B (setting [5]); 4 µg/mL against P. aeruginosa 503-56. In addition, the minimal inhibitory concentration (MIC) was 0.25 µg/mL in the assay with P. aeruginosa K77/WT; 4 µg/mL against P. aeruginosa 1973E; 0.016 µg/mL against P. aeruginosa K77/61; 128 µg/mL against P. aeruginosa 765; 0.5 µg/mL in the assay with P. aeruginosa Stone 130 [2]; 0.016 µg/mL with P. aeruginosa 8780. This molecule gave an MIC in the assay on P. aeruginosa 8710 (8710) of 0.125 µg/mL.

For `CON=C(C(=O)NC1C(=O)N2C(C(=O)O)=C(COC(=O)c3ccc(O)c(O)c3)CSC12)c1csc(N)n1` (stereo not drawn) [Compound A, [6R-[6 alpha,7 beta(Z)]]-7-[[2-amino-4-thiazolyl)(methoxyimino)acetyl]amino]-3-[[[(3,4-dihydroxyphenyl)carbonyl]oxy]methyl]-8-oxo-5-thia-1-azabicyclo[4.2.0]oct-2-ene-2-carboxylic acid monosodium salt], the MIC worked out at 0.016 µg/mL against P. aeruginosa 185/H [1]; 8 µg/mL against P. aeruginosa ATCC 27853; 2 µg/mL with P. aeruginosa 6148B; 8 µg/mL against P. aeruginosa 5700; 2 µg/mL with P. aeruginosa B (setting [5]); 4 µg/mL against P. aeruginosa 503-56. Moreover, the MIC came out at 1 µg/mL against P. aeruginosa K77/WT; 4 µg/mL with P. aeruginosa 1973E; 0.25 µg/mL with P. aeruginosa K77/61; 4 µg/mL against P. aeruginosa 765; 2 µg/mL against P. aeruginosa Stone 130 [2]; 0.5 µg/mL in the assay with P. aeruginosa 8780. In the assay with P. aeruginosa 8710 (In Vitro, Broth Dilution, P. aeruginosa 8710, read-out: MIC), the MIC came to 2 µg/mL.
